From paper PMC10734772 (Turkish Journal of Chemistry, 2021)

Experiments:
Format in all cases: cell-based
K562 = experiment: MTT assay, K562 cells; conditions: Homo sapiens, 24 h, MTT, read-out: Viability rate
Description: (§10) After incubation (on the third day), to precipitate leukemia cells, the cell plate was centrifuged at 1500 rpm for 5 min. […] The 50 μl of supernatant was discarded from each well and 100 μl of DMSO was added to dissolve the formazan. Plates were shaken for 45 min to dissolve the dye. Then the optical density of each well was measured by using Thermo VarioSkan Flush Multimode Reader Quantum ST5-1100 at 570 nm wavelength.
(§11) The IC50 values were calculated by using GraphPad Prism. All the data presented as the mean of 6 replicates. […] Statistical analysis was performed using dose-response inhibition, log(inhibitor) vs response-variable slope, least squares (ordinary) fit.

Nalm-6 = experiment: MTT assay, Nalm-6 cells; conditions: Homo sapiens, 24 h, MTT, read-out: Viability rate
Description: as §10, §11

Molt-4 = experiment: MTT assay, Molt-4 cells; conditions: Homo sapiens, MOLT-4, 24 h, read-out: Viability rate
Description: (§1) K562, Jurkat, Molt-4, and Nalm-6 cell lines were cultured in RPMI-1640 medium (ECM2001, Euroclone), Reh cell line was cultured in DMEM medium (LM-D1111-Biosera) Hek293T cell line was cultured in IMDM medium (AL070A - HiMedia) supplemented with 10% heat-inactivated fetal bovine serum (F7524-Merck & Co., USA,) penicillin and streptomycin (P4333-Sigma Aldrich). K562, Jurkat and Molt-4 cell lines were seeded as 4x10^5/ml, Reh and Nalm-6 cell lines were seeded 5x10^5/ml, Hek293T cell line was seed as 2x10^5/ml. All cells were incubated at 5% CO2 and 37 °C. All cell lines were kindly provided by Dr. M. Sayitoglu and Dr. Ö. Hatirnaz-Ng from Acibadem University.
(§2) MTT assay is a 3-day test. On the first day, cell count was performed in Bio Rad TC-20 device with the help of trypan blue, each cell line was prepared by diluting to the specified concentrations and seeded in a 96-well plate as 100μL to each well and incubated for 1 day.
(§3) Each compound was solved in DMSO, their stock solutions (33.3, 10, 5, 1 mM, and 300 μM) were prepared by diluting with the same solvent and they were stored under −20°C when they were not used.
(§4) On the second day, stock solutions were subsequently diluted to various concentrations (0.3–200 μM) with related medium prior to experiments. Specified concentrations of the compounds were seeded in a 96-well plate as 100μL to each well and incubated for 24 h.
(§5) After incubation (on the third day), to precipitate leukemia cells, the cell plate was centrifuged at 1500 rpm for 5 min. Then, 100 μL of supernatant was removed from each well carefully and 10 μl of MTT solution (5 mg/mL) was added to each well and incubated at 37 °C for 4 h. The 50 μl of supernatant was discarded from each well and 100 μl of DMSO was added to dissolve the formazan. Plates were shaken for 45 min to dissolve the dye. Then the optical density of each well was measured by using Thermo VarioSkan Flush Multimode Reader Quantum ST5-1100 at 570 nm wavelength.
(§6) Subsequently, viability rate of the cells at each concentration, as percentage, was determined by following formula (1):
(§7) Viability rate (%)=100-[(OD(control)-OD(sample))/OD(control)×100].OD=Optical Density
(§8) The IC50 values were calculated by using GraphPad Prism. All the data presented as the mean of 6 replicates. Results were analyzed and illustrated with Graph Pad Prism (version 5; GraphPad Software, San Diego, CA, USA). Statistical analysis was performed using dose-response inhibition, log(inhibitor) vs response-variable slope, least squares (ordinary) fit.
(§9) To evaluate in-vitro anti-cancer activity of the newly synthesized compounds, they were tested by using the MTT assay in the BCR-ABL positive leukemic cell line (K562), BCR-ABL negative leukemic cell lines (Nalm-6, Molt-4, Reh and Jurkat), and non-leukemic human embryonic kidney tissue (Hek293T) cell line. […] The viability rate of each concentration was calculated by the formula stated in material and methods, the viability rate results for each cell were presented in Table S2 and Figure S44.

Reh = experiment: MTT assay, Reh cells; conditions: Homo sapiens, 24 h, read-out: Viability rate
Description: as §1, §2, §3, §4, §5, §6, §7, §8, §9

Jurkat = experiment: MTT assay, Jurkat cells; conditions: Homo sapiens, 24 h, read-out: Viability rate
Description: as §1, §2, §3, §4, §5, §6, §7, §8, §9

[1] = MTT assay, Hek293T non-leukemic control cells; conditions: human, read-out: Viability rate
Description: as §1, §2, §3, §4, §5, §6, §7, §8, §9

## Cc1ccc(NC(=O)c2ccc(CN3CCN(C)CC3)cc2)cc1Nc1nccc(-c2cccnc2)n1 [imatinib, reference compound]
K562; K562, 0.3 μM
  viability at 0.3 µM: 98 ± 0.03%
K562; K562, 0.5 μM
  viability at 0.5 µM: 97.4 ± 0.06%
K562; K562, 1 μM
  viability at 1 µM: 95.4 ± 0.07%
K562; K562, 3 μM
  viability at 3 µM: 95.3 ± 0.05%
K562; K562, 5 μM
  viability at 5 µM: 95.4 ± 0.09%
K562; K562, 10 μM
  viability at 10 µM: 94.8 ± 0.09%
K562; K562, 15 μM
  viability at 15 µM: 88.5 ± 0.1%
K562; K562, 20 μM
  viability at 20 µM: 87 ± 0.04%
K562; K562, 30 μM
  viability at 30 µM: 72.8 ± 0.06%
K562; K562, 50 μM
  viability at 50 µM: 60.8 ± 0.1%
K562; K562, 70 μM
  viability at 70 µM: 60 ± 0.07%
K562; K562, 100 μM
  viability at 100 µM: 51.3 ± 0.05%
K562; K562, 150 μM
  viability at 150 µM: 35.1 ± 0.01%
K562; K562, 200 μM
  viability at 200 µM: 29.7%
Nalm-6; Nalm-6, 0.3 μM
  viability at 0.3 µM: 91 ± 0.08%
Nalm-6; Nalm-6, 0.5 μM
  viability at 0.5 µM: 90.7 ± 0.06%
Nalm-6; Nalm-6, 1 μM
  viability at 1 µM: 90.1 ± 0.09%
Nalm-6; Nalm-6, 3 μM
  viability at 3 µM: 84.7 ± 0.09%
Nalm-6; Nalm-6, 5 μM
  viability at 5 µM: 84.5 ± 0.05%
Nalm-6; Nalm-6, 10 μM
  viability at 10 µM: 72.9 ± 0.03%
Nalm-6; Nalm-6, 15 μM
  viability at 15 µM: 57.1 ± 0.02%
Nalm-6; Nalm-6, 20 μM
  viability at 20 µM: 52.7 ± 0.01%
Nalm-6; Nalm-6, 30 μM
  viability at 30 µM: 50.7 ± 0.03%
Nalm-6; Nalm-6, 50 μM
  viability at 50 µM: 39.7 ± 0.01%
Nalm-6; Nalm-6, 70 μM
  viability at 70 µM: 32.5 ± 0.05%
Nalm-6; Nalm-6, 100 μM
  viability at 100 µM: 32.2 ± 0.02%
Nalm-6; Nalm-6, 150 μM
  viability at 150 µM: 32.5 ± 0.01%
Nalm-6; Nalm-6, 200 μM
  viability at 200 µM: 29%
Molt-4; Molt-4, 0.3 μM
  viability at 0.3 µM: 75.6 ± 0.18%
Molt-4; Molt-4, 0.5 μM
  viability at 0.5 µM: 74.9 ± 0.18%
Molt-4; Molt-4, 1 μM
  viability at 1 µM: 75.1 ± 0.19%
Molt-4; Molt-4, 3 μM
  viability at 3 µM: 73.8 ± 0.17%
Molt-4; Molt-4, 5 μM
  viability at 5 µM: 72.7 ± 0.25%
Molt-4; Molt-4, 10 μM
  viability at 10 µM: 70.7 ± 0.21%
Molt-4; Molt-4, 15 μM
  viability at 15 µM: 70.2 ± 0.1%
Molt-4; Molt-4, 20 μM
  viability at 20 µM: 63.4 ± 0.1%
Molt-4; Molt-4, 30 μM
  viability at 30 µM: 63.3 ± 0.06%
Molt-4; Molt-4, 50 μM
  viability at 50 µM: 55.5 ± 0.05%
Molt-4; Molt-4, 70 μM
  viability at 70 µM: 52.1 ± 0.1%
Molt-4; Molt-4, 100 μM
  viability at 100 µM: 41.2 ± 0.06%
Molt-4; Molt-4, 150 μM
  viability at 150 µM: 29.8 ± 0.04%
Molt-4; Molt-4, 200 μM
  viability at 200 µM: 20.3 ± 0.02%
Reh; 0.3 μM
  viability at 0.3 µM: 97.6 ± 0.03%
Reh; 0.5 μM
  viability at 0.5 µM: 96.8 ± 0.03%
Reh; 1 μM
  viability at 1 µM: 96.4 ± 0.01%
Reh; 3 μM
  viability at 3 µM: 95.5 ± 0.02%
Reh; 5 μM
  viability at 5 µM: 94.5 ± 0.03%
Reh; 10 μM
  viability at 10 µM: 91.3 ± 0.05%
Reh; 15 μM
  viability at 15 µM: 82.4 ± 0.02%
Reh; 20 μM
  viability at 20 µM: 78.6 ± 0.02%
Reh; 30 μM
  viability at 30 µM: 70.9 ± 0.03%
Reh; 50 μM
  viability at 50 µM: 63.5 ± 0.04%
Reh; 70 μM
  viability at 70 µM: 62.9 ± 0.03%
Reh; 100 μM
  viability at 100 µM: 61.2 ± 0.01%
Reh; 150 μM
  viability at 150 µM: 60.3 ± 0.03%
Reh; 200 μM
  viability at 200 µM: 57 ± 0.02%
Jurkat; 0.3 μM
  viability at 0.3 µM: 68.4 ± 0.12%
Jurkat; 0.5 μM
  viability at 0.5 µM: 63.9 ± 0.03%
Jurkat; 1 μM
  viability at 1 µM: 61.5 ± 0.07%
Jurkat; 3 μM
  viability at 3 µM: 61.3 ± 0.05%
Jurkat; 5 μM
  viability at 5 µM: 60.7 ± 0.08%
Jurkat; 10 μM
  viability at 10 µM: 60.6 ± 0.14%
Jurkat; 15 μM
  viability at 15 µM: 57.9 ± 0.05%
Jurkat; 20 μM
  viability at 20 µM: 46.8 ± 0.05%
Jurkat; 30 μM
  viability at 30 µM: 34.5 ± 0.04%
Jurkat; 50 μM
  viability at 50 µM: 26.2 ± 0.05%
Jurkat; 70 μM
  viability at 70 µM: 17.8 ± 0.02%
Jurkat; 100 μM
  viability at 100 µM: 17.5 ± 0.01%
Jurkat; 150 μM
  viability at 150 µM: 17.3 ± 0.01%
Jurkat; 200 μM
  viability at 200 µM: 16.6%
[1]; Hek293T cells (non-leukemic control cell line), 0.3 μM
  viability at 24 h, 0.3 µM: 83.4 ± 0.02%
[1]; Hek293T cells (non-leukemic control cell line), 0.5 μM
  viability at 24 h, 0.5 µM: 78.6 ± 0.04%
[1]; Hek293T cells (non-leukemic control cell line), 3 μM
  viability at 24 h, 3 µM: 73.1 ± 0.03%
[1]; Hek293T cells (non-leukemic control cell line), 5 μM
  viability at 24 h, 5 µM: 71.5 ± 0.02%
[1]; Hek293T cells (non-leukemic control cell line), 10 μM
  viability at 24 h, 10 µM: 67.9 ± 0.01%
[1]; Hek293T cells (non-leukemic control cell line), 15 μM
  viability at 24 h, 15 µM: 59.6 ± 0.01%
[1]; Hek293T cells (non-leukemic control cell line), 20 μM
  viability at 24 h, 20 µM: 55.7 ± 0.03%
[1]; Hek293T cells (non-leukemic control cell line), 30 μM
  viability at 24 h, 30 µM: 53.5 ± 0.01%
[1]; Hek293T cells (non-leukemic control cell line), 50 μM
  viability at 24 h, 50 µM: 48.5 ± 0.05%
[1]; Hek293T cells (non-leukemic control cell line), 70 μM
  viability at 24 h, 70 µM: 42.9 ± 0.03%
[1]; Hek293T cells (non-leukemic control cell line), 100 μM
  viability at 24 h, 100 µM: 42.7 ± 0.03%
[1]; Hek293T cells (non-leukemic control cell line), 150 μM
  viability at 24 h, 150 µM: 42.5 ± 0.02%
[1]; Hek293T cells (non-leukemic control cell line), 200 μM
  viability at 24 h, 200 µM: 42.1 ± 0.01%
[1]; Hek293T cells, 1 μM
  viability at 24 h, 1 µM: 77.7 ± 0.03%
